This note sets out measurements from patent US6962918B2, “Hexahydropyrazino[1'2';1,6]pyrido[3,4-b]indole-1,4-diones for the treatment of cardiovascular disorders and erectile dysfunction” (Lilly Icos LLC., priority 2000, dated 2005).

pIC50: −log10 of the molar value.

The target in one data set is recombinant human PDE5 (Homo sapiens, UniProt O76074). The experiment in a line: Inhibitory effect on cGMP-PDE (PDE5 IC50), one-step assay adapted from Wells et al. As to conditions: 0.15 μM 8-[H3]-cGMP, 30 minutes incubation, 2% DMSO. Format: biochemical. How it is done: The compounds of structural formula (I) were tested for an ability to inhibit PDE5. The ability of a compound to inhibit PDE5 activity is related to the IC50 value for the compound, i.e., the concentration of inhibitor required for 50% inhibition of enzyme activity. The IC50 value for compounds of structural formula (I) were determined using recombinant human PDE5.
(§1) cGMP-PDE activity of compounds of the present invention was measured using a one-step assay adapted from Wells et al., Biochim. Biophys. Acta, 384, 430 (1975). The reaction medium contained 50 mM Tris-HCl, pH 7.5, 5 mM magnesium acetate, 250 μg/ml 5′-Nucleotidase,1 mM ECTA, and 0.15 μM 8-[H^3]-cGMP. Unless otherwise indicated, the enzyme used was a human recombinant PDE5 (ICOS Corp., Bothell, Wash.).
(§2) Compounds of the invention were dissolved in DMSO finally present at 2% in the assay.

The next data set concerns the target T1, PDE5 (bovine aorta) (Bos taurus, UniProt Q28156).
T1 construct: from tissue; host or cells: bovine aorta
The experiment in a line: Inhibitory effect on cGMP-PDE (PDE5 IC50), bovine aorta enzyme. Format: biochemical. The following applies: enzyme marked (bovine aorta) in the cell. How it is done:
as §1, §2

By pIC50 is commonly meant the negative decadic logarithm of the IC50, by convention in mol/L. The term melting point denotes the temperature, or range, at which the solid turns liquid.

As to `CC(C)C[C@H]1c2[nH]c3ccccc3c2C[C@H]2C(=O)N(C)CC(=O)N21` (racemic) [Example 19, (+−,cis)-6-Isobutyl-2-methyl-2,3,6,7,12,12a-hexa-hydropyrazino[1′2′:1,6]pyrido[3,4-b]indole-1,4-dione], the pIC50 on recombinant human PDE5 is 5.32.
For the molecule `CN1CC(=O)N2[C@@H](C3CCCCC3)c3[nH]c4ccccc4c3C[C@H]2C1=O` (racemic) [Example 20, (+−, cis)-6-Cyclohexyl-2-methyl-2,3,6,7,12,12a-hexa-hydropyrazino[1′2′:1,6]pyrido[3,4-b]indole,1,4-dione], the pIC50 at PDE5 (bovine aorta) is 6.64.
As for `CN1CC(=O)N2[C@@H](c3cc4ccccc4o3)c3[nH]c4ccccc4c3C[C@H]2C1=O` [Example 1, (6R,12aS)-6-benzofuran-2-yl-2-methyl-2,3,6,7,12,12a-hexahydro-pyrazino [1′,2′:1,6]pyrido[3,4-b]indole-1,4-dione], the negative-log IC50 (pIC50) at recombinant human PDE5 was 6.89.
In turn, `CN1CC(=O)N2[C@H](c3cc4ccccc4o3)c3[nH]c4ccccc4c3C[C@H]2C1=O` [Example 2] displayed a melting point of 195 to 198 °C. On recombinant human PDE5, the pIC50 is 5.06.
Taken in the same sequence, the figures for `CN1CC(=O)N2[C@H](c3cc4ccccc4o3)c3[nH]c4ccccc4c3C[C@@H]2C1=O` [Example 3, (6S,12aR)-6-benzofuran-2-yl-2-methyl-2,3,6,7,12,12a-hexahydropyrazino[1′,2′:1,6]-pyrido[3,4-b]indole-1,4-dione] were 265 to 268 °C and 7.80.
As to `CN1CC(=O)N2[C@@H](c3cc4ccccc4o3)c3[nH]c4ccccc4c3C[C@@H]2C1=O` [Example 4], at recombinant human PDE5, the pIC50 was 6.06.
`Cc1c([C@H]2c3[nH]c4ccccc4c3C[C@H]3C(=O)N(C)CC(=O)N23)sc2ccccc12` [Example 5, (6R,12aS)-2-methyl-6-(e-methyl-benzo[b]thiophen-2-yl)-2,3,6,7,12,12a-hexahydro-pyrazino[1′,2′:1,6]pyrido[3,4-b]indole-1,4-dione] yielded a melting point of 230 to 234 °C. Further, the pIC50 at recombinant human PDE5 is 7.60.
With `Cc1c([C@@H]2c3[nH]c4ccccc4c3C[C@H]3C(=O)N(C)CC(=O)N23)sc2ccccc12` [Example 6], the pIC50 on recombinant human PDE5 was 7.40.
Still for that read-out and setting: as for `Cc1c([C@H]2c3[nH]c4ccccc4c3C[C@@H]3C(=O)N(C)CC(=O)N23)sc2ccccc12` [Example 7, (6R,12aR)-2-methyl-6-(3-methylbenzo[b]thiophen-2-yl)-2,3,6,7,12,12a-hexahydropyrazino[1′2′:1,6]-pyrido[3,4-b]indole-1,4-dione], the figure is 5.80.
Same read-out and setting: then `Cc1c([C@@H]2c3[nH]c4ccccc4c3C[C@@H]3C(=O)N(C)CC(=O)N23)sc2ccccc12` [Example 8], with 9.00.
Same read-out and setting: then `CN1CC(=O)N2[C@H](c3cc4ccoc4s3)c3[nH]c4ccccc4c3C[C@@H]2C1=O` [Example 9], with 7.92; and `COC[C@@H]1c2[nH]c3ccccc3c2C[C@@H]2C(=O)N(C)CC(=O)N21` [Example 15], with 6.48.
On to `CN1CC(=O)N2[C@H](Cc3c([nH]c4ccccc34)[C@H]2COCc2ccccc2)C1=O` [Example 16, (6S,12aR)-6-Benzyloxymethyl-2-methyl-2,3,6,7,12,12a-hexahydropyrazino[1′2′:1,6]pyrido-[3,4-b]indole-1,4-dione], for which the melting point was in the range of 181 to 187 °C. On recombinant human PDE5, the pIC50 is 5.82.
In the case of `CN1CC(=O)N2[C@H](Cc3c([nH]c4ccccc34)[C@H]2CO)C1=O` [Example 17, (6S,12aR)-6-Hydroxymethyl-2-methyl-2,3,6,7,12,12a-hexahydropyrazino-[1′2′:1,6]pyrido[3,4-b]indole-1,4-dione], the pIC50 on recombinant human PDE5 was 4.64.
`COCOC[C@@H]1c2[nH]c3ccccc3c2C[C@@H]2C(=O)N(C)CC(=O)N21` [Example 18, (6S,12aR)-Methoxymethoxymethyl-2-methyl-2,3,6,7,12,12a-hexahydropyrazino-[1′,2′:1,6]pyrido[3,4-b]indole-1,4-dione] returned a melting point of 180 to 185 °C. Further, the pIC50 on recombinant human PDE5 is 6.71.
On to `CN1CC(=O)N2[C@@H](C3CC=CCC3)c3[nH]c4ccccc4c3C[C@H]2C1=O` (stereo partly drawn) [Example 21, (+−, cis)-6-Cyclohex-3-enyl-2-methyl-2,3,6,7,12,12a-hexahydropyrazino[1′2′:1,6]pyrido[3,4-b]indole-1,4-dione], for which the pIC50 at recombinant human PDE5 is 6.25.
